The Kinase Knowledgebase extract (Sharma et al. 2016)
Several values for one entry are separate records, joined by “and”; a condition that tells them apart may be missing. Equal values may be shown once.

Experiments:
Test in all cases: Enzyme Assay
[1] = molecular target: CDK2 (UniProt P24941)
[2] = molecular target: CDK2 (UniProt P24941); remark: listed apart in the source
[3] = molecular target: CDK2 (UniProt P24941); remark: listed apart in the source

CCC(CC)n1c(=O)ccc2cnc(Nc3cccc(C(F)(F)F)c3)nc21 gave an IC50 [1] of 0.601 µM and an IC50 [2] of 0.131 µM.
Cc1cc(Nc2ncc3ccc(=O)n(C(C)C)c3n2)ccc1Cl was tested, and the IC50 [1] was 0.35 µM and the IC50 [2] was 0.22 µM.
Work on COc1ccc(Nc2ncc3ccc(=O)n(C4CCCC4)c3n2)cc1F yielded an IC50 [1] of 0.075 µM and an IC50 [2] of 0.035 µM.
CC(C)n1c(=O)ccc2cnc(Nc3ccc(F)c(Cl)c3)nc21 was tested, and the IC50 [1] was 0.14 µM.
O=c1ccc2cnc(Nc3ccc(N4CCCC(O)C4)cc3)nc2n1C1CCCC1 (configuration not stated) was tested, and the IC50 [1] was 0.044 µM.
For O=c1ccc2cnc(Nc3ccc(N4CCC(CCO)CC4)cc3)nc2n1C1CCCCC1, the IC50 [3] was 0.0142 µM and the IC50 [1] was 0.03 µM.
Compound COc1ccc(Nc2ncc3ccc(=O)n(C(C)C)c3n2)cc1 has an IC50 [3] of 0.392 µM and an IC50 [1] of 0.54 µM.
CCCn1c(=O)ccc2cnc(Nc3ccc(NC(=O)OC(C)(C)C)cc3)nc21 showed an IC50 [1] of 2.45 µM and an IC50 [2] of 0.82 µM.
O=c1ccc2cnc(Nc3ccc4cn[nH]c4c3)nc2n1CC1CC1 showed an IC50 [1] of 0.26 µM and an IC50 [2] of 0.2 µM.
Work on CCCCn1c(=O)ccc2cnc(Nc3cc(Cl)cc(Cl)c3)nc21 yielded an IC50 [1] of 3.78 µM.
CCCn1c(=O)ccc2cnc(Nc3cc(OC)c(OC)c(OC)c3)nc21 showed an IC50 [1] of 1.65 µM.
Compound CCC(CC)n1c(=O)ccc2cnc(Nc3ccc(F)c(C)c3)nc21 has an IC50 [1] of 0.155 µM.
Compound O=c1ccc2cnc(Nc3ccc(Br)c(C(F)(F)F)c3)nc2n1C1CCCC1 has an IC50 [1] of 0.22 µM and an IC50 [2] of 0.15 µM.
Work on O=c1ccc2cnc(Nc3c(F)cc(F)cc3F)nc2n1C1CCCC1 yielded an IC50 [1] of 0.33 µM and an IC50 [2] of 0.47 µM.
O=c1ccc2cnc(Nc3ccc(N4CCCCC4)cc3)nc2n1C1CCCCC1 was tested, and the IC50 [3] was 0.0668 µM and the IC50 [1] was 0.193 µM.
O=c1ccc2cnc(Nc3ccc(-n4cccn4)cc3)nc2n1C1CCCC1 was tested, and the IC50 [3] was 0.0357 µM and the IC50 [1] was 0.087 µM.
O=c1ccc2cnc(Nc3ccc(N4CCCCC4)cc3)nc2n1CCCOC1CCCCO1 (configuration not stated) was tested, and the IC50 [3] was 0.285 µM and the IC50 [1] was 1.9 µM.
CCCn1c(=O)ccc2cnc(N(C)c3ccc(O)c(N4CCOCC4)c3)nc21 showed an IC50 [1] of 1.1 µM and an IC50 [2] of 0.68 µM.
For CCCn1c(=O)ccc2cnc(Nc3ccc(OC)c(O)c3)nc21, the IC50 [1] was 0.96 µM and 1.1 µM and the IC50 [2] was 0.24 µM and 0.67 µM.
For CCCn1c(=O)ccc2cnc(Nc3ccc(I)c(Cl)c3)nc21, the IC50 [1] was 0.82 µM and the IC50 [2] was 0.18 µM.
Work on O=c1ccc2cnc(Nc3cccc(OC(F)(F)C(F)F)c3)nc2n1C1CC2CCC1C2 (configuration not stated) yielded an IC50 [3] of 0.275 µM and an IC50 [1] of 10 µM.
